From the NIST ThermoML archive (doi:10.1016/j.jct.2004.03.005)
± gives the expanded uncertainty stated by the source.

How the values were obtained:
[1] = for Triple point temperature: Crystal 2, DTA; for vapor or sublimation pressure: Crystal, Calculated from knudsen effusion weight loss
[2] = Molar enthalpy of transition or fusion; conditions: Crystal 2; DSC
[3] = molar heat capacity at constant pressure; conditions: 101.33 kPa, Small sample (50 mg) DSC

SMILES	Triple point temperature [1]	Molar enthalpy of transition or fusion [2]	molar heat capacity at constant pressure ([3]; 268.15 K, Crystal 2)	molar heat capacity at constant pressure ([3]; 270.15 K, Crystal 2)	molar heat capacity at constant pressure ([3]; 275.15 K, Crystal 2)	molar heat capacity at constant pressure ([3]; 280.15 K, Crystal 2)	molar heat capacity at constant pressure ([3]; 285.15 K, Crystal 2)	molar heat capacity at constant pressure ([3]; 290.15 K, Crystal 2)	molar heat capacity at constant pressure ([3]; 295.15 K, Crystal 2)	molar heat capacity at constant pressure ([3]; 298.15 K, Crystal 2)	molar heat capacity at constant pressure ([3]; 300.15 K, Crystal 2)	molar heat capacity at constant pressure ([3]; 305.15 K, Crystal 2)	molar heat capacity at constant pressure ([3]; 310.15 K, Crystal 2)	molar heat capacity at constant pressure ([3]; 315.15 K, Crystal 2)	molar heat capacity at constant pressure ([3]; 320.15 K, Crystal 2)	molar heat capacity at constant pressure ([3]; 325.15 K, Crystal 2)	molar heat capacity at constant pressure ([3]; 330.15 K, Crystal 2)	molar heat capacity at constant pressure ([3]; 335.15 K, Crystal 2)	molar heat capacity at constant pressure ([3]; 340.15 K, Crystal 2)	molar heat capacity at constant pressure ([3]; 345.15 K, Crystal 2)	further results
CC(C)c1nc2ccccc2[nH]1 [1H-benzimidazole, 2-(1-methylethyl)-]	410.4 ± 0.4 K	0.239 ± 0.0478 kcal/mol	197 ± 3.9 J/K/mol	199 ± 4 J/K/mol	202.8 ± 4.1 J/K/mol	206.9 ± 4.1 J/K/mol	210.8 ± 4.2 J/K/mol	214.4 ± 4.3 J/K/mol	218.7 ± 4.4 J/K/mol	220.6 ± 4.4 J/K/mol	221.7 ± 4.4 J/K/mol	224.5 ± 4.5 J/K/mol	228 ± 4.6 J/K/mol	230.9 ± 4.6 J/K/mol	234.6 ± 4.7 J/K/mol	238 ± 4.8 J/K/mol	240.7 ± 4.8 J/K/mol	245.2 ± 4.9 J/K/mol	248.9 ± 5 J/K/mol	252.7 ± 5 J/K/mol	molar heat capacity at constant pressure ([3]; 350.15 K, Crystal 2): 256 ± 5.1 J/K/mol; molar heat capacity at constant pressure ([3]; 355.15 K, Crystal 2): 260 ± 5.2 J/K/mol; molar heat capacity at constant pressure ([3]; 360.15 K, Crystal 2): 264 ± 5.3 J/K/mol; molar heat capacity at constant pressure ([3]; 365.15 K, Crystal 2): 267.4 ± 5.3 J/K/mol; molar heat capacity at constant pressure ([3]; 370.15 K, Crystal 2): 272 ± 5.4 J/K/mol; molar heat capacity at constant pressure ([3]; 375.15 K, Crystal 2): 276.3 ± 5.5 J/K/mol; molar heat capacity at constant pressure ([3]; 380.15 K, Crystal 2): 280.1 ± 5.6 J/K/mol; molar heat capacity at constant pressure ([3]; 385.15 K, Crystal 2): 284.6 ± 5.7 J/K/mol; molar heat capacity at constant pressure ([3]; 425.15 K, Crystal 1): 285.7 ± 5.7 J/K/mol; molar heat capacity at constant pressure ([3]; 430.15 K, Crystal 1): 288.4 ± 5.8 J/K/mol; molar heat capacity at constant pressure ([3]; 435.15 K, Crystal 1): 292.2 ± 5.8 J/K/mol; molar heat capacity at constant pressure ([3]; 440.15 K, Crystal 1): 298.2 ± 6 J/K/mol; molar heat capacity at constant pressure ([3]; 445.15 K, Crystal 1): 301.3 ± 6 J/K/mol; molar heat capacity at constant pressure ([3]; 450.15 K, Crystal 1): 308.5 ± 6.2 J/K/mol; molar heat capacity at constant pressure ([3]; 455.15 K, Crystal 1): 310.9 ± 6.2 J/K/mol; molar heat capacity at constant pressure ([3]; 460.15 K, Crystal 1): 314.8 ± 6.3 J/K/mol; molar heat capacity at constant pressure ([3]; 463.15 K, Crystal 1): 316.2 ± 6.3 J/K/mol
CCCc1nc2ccccc2[nH]1 [1H-benzimidazole, 2-propyl-]	385.8 ± 0.5 K	0.359 ± 0.0478 kcal/mol	190.5 ± 3.8 J/K/mol	192.6 ± 3.9 J/K/mol	197.1 ± 3.9 J/K/mol	201.5 ± 4 J/K/mol	206.1 ± 4.1 J/K/mol	210.1 ± 4.2 J/K/mol	214.4 ± 4.3 J/K/mol	217.1 ± 4.3 J/K/mol	218.7 ± 4.4 J/K/mol	223.2 ± 4.5 J/K/mol	228.3 ± 4.6 J/K/mol	234 ± 4.7 J/K/mol	239.7 ± 4.8 J/K/mol	245.7 ± 4.9 J/K/mol	252.2 ± 5 J/K/mol	258.6 ± 5.2 J/K/mol	263.7 ± 5.3 J/K/mol	268.3 ± 5.4 J/K/mol	vapor or sublimation pressure ([1]; 344.53 K): 4.28e-05 ± 2.2e-06 kPa; vapor or sublimation pressure ([1]; 352.14 K): 9.52e-05 ± 4.8e-06 kPa; vapor or sublimation pressure ([1]; 355.33 K): 0.000131 ± 7e-06 kPa; vapor or sublimation pressure ([1]; 362.01 K): 0.000266 ± 1.3e-05 kPa; vapor or sublimation pressure ([1]; 364.33 K): 0.000324 ± 1.6e-05 kPa; molar heat capacity at constant pressure ([3]; 350.15 K, Crystal 2): 274.9 ± 5.5 J/K/mol; molar heat capacity at constant pressure ([3]; 355.15 K, Crystal 2): 282.4 ± 5.7 J/K/mol; molar heat capacity at constant pressure ([3]; 360.15 K, Crystal 2): 292.6 ± 5.8 J/K/mol; molar heat capacity at constant pressure ([3]; 365.15 K, Crystal 2): 306.3 ± 6.1 J/K/mol; molar heat capacity at constant pressure ([3]; 400.15 K, Crystal 1): 280.1 ± 5.6 J/K/mol; molar heat capacity at constant pressure ([3]; 405.15 K, Crystal 1): 285.2 ± 5.7 J/K/mol; molar heat capacity at constant pressure ([3]; 410.15 K, Crystal 1): 290.7 ± 5.8 J/K/mol; molar heat capacity at constant pressure ([3]; 415.15 K, Crystal 1): 297.5 ± 6 J/K/mol; molar heat capacity at constant pressure ([3]; 420.15 K, Crystal 1): 306.5 ± 6.1 J/K/mol
